{"source": "patent EP0053029A1", "about": "“Non enkephalin-like peptides, their production, compositions containing them, and their medical and veterinary use” (PENINSULA LABORATORIES INCORPORATED, priority 1980, dated 1982)", "test_system": "rat", "assay": "rat tail withdrawal assay (hot water, 55°C)", "type": "in vivo", "conditions": "for analgesic activity: general statement, route and dose not stated", "experimental": "The acetate salts of formula I described in Examples 1 to 3 were tested for analgesic activity in the rat tail withdrawal assay. […] Latencies of 5 seconds or greater indicate strong analgesic activity and 20 seconds is a maximum response in this test. The peptides were administered intracisternally or intravenously.\nThe formula I acetate of Example 2 was dissolved in a sufficient sterile, distilled water to give an injection volume of 1 ml/kg of body weight and administered to rats as a bolus i.v. injection at several dosages.", "note": "“And” between values parts separate entries of the source, which are not always exact repeats. Equal entries are not always repeated. Where a SMILES comes first, the peptide text is derived from it. [ ]: non-standard residue; d: D form. NMeF = CN[C@@H](Cc1ccccc1)C(=O)O; Thz = O=C(O)[C@@H]1CSCN1", "data": [{"smiles": "NC(=O)[C@@H]1CSCN1C(=O)[C@H](Cc1ccccc1)NC(=O)[C@@H]1CCCN1C(=O)[C@@H](N)Cc1ccc(O)cc1", "note": "[Example 1, L-Tyrosyl-L-Prolyl-L-Phenylalanyl-L-Thiazolidine-4-carboxyl·amide Acetate] (H-YPF[Thz]-NH2)", "values": [{"measurement": "analgesic activity", "result": "high analgesic activity"}]}, {"smiles": "CN(C(=O)[C@@H]1CCCN1C(=O)[C@@H](N)Cc1ccc(O)cc1)[C@@H](Cc1ccccc1)C(=O)N1CCC[C@@H]1C(N)=O", "note": "[Example 2, L-Tyrosyl-L-Prolyl-N-Methyl-L-Phenylalanyl-D-Prolinamide-Acetate] (H-YP[NMeF][dP]-NH2)", "values": [{"measurement": "Latency of Tail Withdrawal", "setting": "i.v. bolus, 2.5 mg/kg, 5 min. after injection", "result": 2, "unit": "s"}, {"measurement": "Latency of Tail Withdrawal", "setting": "i.v. bolus, 5.0 mg/kg, 5 min. after injection", "result": "8.4 ± 3.6", "unit": "s"}, {"measurement": "Latency of Tail Withdrawal", "setting": "i.v. bolus, 10.0 mg/kg, 5 min. after injection", "result": "10.2 ± 3.2", "unit": "s"}, {"measurement": "Latency of Tail Withdrawal", "setting": "i.v. bolus, 10.0 mg/kg, 15 min. after injection", "result": "11.1 ± 3.1", "unit": "s"}, {"measurement": "Latency of Tail Withdrawal", "setting": "i.v. bolus, 10.0 mg/kg, 30 min. after injection", "result": "7.5 ± 2.5", "unit": "s"}, {"measurement": "Latency of Tail Withdrawal", "setting": "i.v. bolus, 10.0 mg/kg, 60 min. after injection", "result": "6.4 ± 2.3", "unit": "s"}, {"measurement": "Latency of Tail Withdrawal", "setting": "i.v., 2.5 mg/kg, 15 min. after injection", "result": 3.5, "unit": "s"}, {"measurement": "Latency of Tail Withdrawal", "setting": "i.v., 2.5 mg/kg, 30 min. after injection", "result": 3.0, "unit": "s"}, {"measurement": "Latency of Tail Withdrawal", "setting": "i.v., 2.5 mg/kg, 60 min. after injection", "result": 2.5, "unit": "s"}, {"measurement": "Latency of Tail Withdrawal", "setting": "i.v., 5.0 mg/kg, 15 min. after injection", "result": "10.3 ± 3.1", "unit": "s"}, {"measurement": "Latency of Tail Withdrawal", "setting": "i.v., 5.0 mg/kg, 30 min. after injection", "result": "9.1 ± 3.4", "unit": "s"}, {"measurement": "Latency of Tail Withdrawal", "setting": "i.v., 5.0 mg/kg, 60 min. after injection", "result": "7.8 ± 3.0", "unit": "s"}, {"measurement": "Comments", "setting": "i.v., 5.0 mg/kg, observed behaviour", "result": "Individual rats showed 20 sec. latencies and morphine-like symptoms"}]}, {"smiles": "CN(C(=O)[C@@H]1CCCN1C(=O)[C@@H](N)Cc1ccc(O)cc1)[C@@H](Cc1ccccc1)C(=O)N1CCC[C@@H]1CO", "note": "[Example 3, L-Tyrosyl-L-Prolyl-N-Methyl-L-Phenylalanyl-D-Prolinol· Acetate]", "values": [{"measurement": "analgesic activity", "result": "high analgesic activity"}]}, {"smiles": "CN(C(=O)[C@@H]1CSCN1C(=O)[C@@H](N)Cc1ccc(O)cc1)[C@@H](Cc1ccccc1)C(=O)N1CCC[C@@H]1C(N)=O", "note": "[Tyr-Thz-N-Me-Phe-D-Pro-NFi2] (H-Y[Thz][NMeF][dP]-NH2)", "values": [{"measurement": "analgesic activity", "result": "high analgesic activity"}]}, {"smiles": "CN1CC[C@]23c4c5ccc(O)c4O[C@H]2[C@@H](O)C=C[C@H]3[C@H]1C5", "note": "[morphine, reference compound]", "values": [{"measurement": "Latency of Tail Withdrawal", "setting": "rat, in vivo, iv, 2.5 mg/kg", "result": "5 s and 6 s and 4.1 s"}, {"measurement": "Comments", "setting": "rat, in vivo, iv, 5 mg/kg", "result": "Catalepsy Rigidity"}, {"measurement": "Latency of Tail Withdrawal", "setting": "rat, in vivo, iv, 5 mg/kg", "result": 20, "unit": "s"}, {"measurement": "Latency of Tail Withdrawal", "setting": "rat, in vivo, iv, 7.5 mg/kg", "result": 20, "unit": "s"}]}]}
